According to patent publication US10316019B2, “Method for preparing the anhydrous crystalline form of isoniazid-derived hydrazone, thus produced crystalline polymorph of the anyhydrous form, use thereof for the treatment of alzheimer's disease, parkinsonism and other neurodegenerative disorders, and pharamceutical composition” (FACULDADDES CATÓLICAS, Associação sem fins Lucrativos, …, priority 2014, dated 2019):

Legend:
[1] = test system: β-amyloid peptide and Zn(II); assay: 2D 1H×15N HSQC NMR competition for Zn(II) bound to β-amyloid peptide; format: binding
[2] = test system: α-synuclein and Cu(II)/Cu(I); assay: 1H NMR competition for Cu(II)/Cu(I) bound to α-synuclein; format: binding
Wistar male rats = assay: Acute toxicity test, intraperitoneal injection; format: in vivo; conditions: i.p. up to 300 mg kg^−1, Wistar male rats

With `O=C(N/N=C/c1ccc2cccc(O)c2n1)c1ccncc1` [INHHQ, 8-hydroxyquinoline-2-carboxaldehyde isonicotinoyl hydrazone] the “Direct interaction with β-amyloid peptide” value ([1]; 1D and 2D NMR) was “does not interact directly”, the “Effect on Aβ HSQC signals in the presence of Zn(II) (Zn(II)-Aβ interaction)” value ([1]; INHHQ 4 eq. added to β-amyloid peptide + Zn(II) 1 eq.) was “partial intensity recovery for all Aβ signals” and the “Direct interaction with α-synuclein” value ([2]; 1D and 2D NMR) was “does not interact directly”. The “Effect on α-synuclein methionine 1H NMR signals in the presence of copper (Cu-α-synuclein interaction)” value ([2]; INHHQ 4 eq. added to α-synuclein + Cu(II)/Cu(I) 1 eq.) was “recovery of the original methionine signals' position”, the Behavioral changes (Wistar male rats; 72 h) was “no behavioral changes” and the “Macroscopic organ abnormalities at dissection” value (Wistar male rats; after sacrifice) was “no macroscopic abnormalities”.
